In one assay the test system is primary CRC cell lines. The assay can be described thus: Liver adhesion assay on frozen sections of grossly normal human liver. The format is cell-based. On the procedure:
(§1) (FIG. 10A, […]) The receptor side: α6 integrin and E-cadherin are involved in the adhesion of metastatic CRC cells to the liver. HepG2 and NCI-H630 cells were incubated on 10-μm frozen sections of grossly normal human liver and adhered cells were fixed, stained and counted under a light microscope at 20× magnification. Photomicrographs representative of cell numbers (120 minutes' incubation) and morphology (5 days' incubation) are shown. The dotted line indicates a micrometastasis-like structure integrated into the hepatic tissue; arrowheads point to cell aggregates. Tissues were counterstained with hematoxylin (FIG. 10A). NCI-H630 cells silenced for ITGA6, CDH1 or both of these mRNAs were challenged in the same assay (FIG. 10B). Results are shown as mean±standard deviation for each experimental point in 3 independent experiments. (FIG. 10C) The ligand side: the […] (SEQ ID NO: 14) motif and angiopoietin-like 6 interact specifically with cells expressing the receptor proteins. Phage binding was investigated on NCI-H630 cells in which ITGA6, CDH1 or both mRNAs were silenced. Results, normalized to fd-tet binding, are shown as mean±standard deviation of 4 independent experiments. The same cells were evaluated for their capacity to adhere to the […] […] After 48 hours, cells on the lower side of the transwell membranes were fixed, stained and counted under a light microscope at 5× magnification. […] (SEQ ID NO: 14) or control peptide; after 30 minutes, adhered cells were fixed, stained and counted under a light microscope at 5× magnification. For NCI-H630, adhesion was evaluated on liver sections from 27 patients (Patient Ids: P29, P30, P33, P34, P35, P36, P56-76) and results are shown as the ratio of attached cells in the presence of […] […] In FIG. 10A-D, FIG. 10F and FIG. 10G, differences in the experimental points were evaluated for their statistical significance by the use of ANOVA followed by Bonferroni's post-test. […] Fourteen days after surgery, animals were sacrificed and livers were explanted and photographed for the quantification of external tumor areas. […]

The next assay relates to NCI-H630 cells. The description is as above. To be noted: liver sections from 27 patients, versus control peptide, 30 minutes. The format is cell-based. On the procedure:
as §1

The subject of assay [1] is U293 cells stably overexpressing E-cadherin, α6 integrin or both. Briefly: Cell proliferation assay (crystal violet). The format is cell-based, human. To be noted: 100 μM peptide, complete (10% FCS) medium; FIG. 12. On the procedure:
U293 cells stably overexpressing E-cadherin, α6 integrin or both were grown in complete (10% FCS) culture medium in the presence of either the control or […] (SEQ ID NO: 14) peptide. At 24 hour time points, cells were fixed and stained with crystal violet; their numbers were estimated by spectrophotometric evaluation. Results are shown as mean±standard deviation for each experimental point in 2 independent experiments.
To test the effects of peptides on cell proliferation, we seeded 2×10^4 cells per well in a 24-well plate, in the presence of either control or […] (SEQ ID NO: 14) peptide (100 μM). At the indicated time points, cells were fixed in glutaraldehyde, stained in crystal violet, and solubilized in 10% acetic acid. Cell growth was evaluated by absorbance at 590 nm in a microplate reader (Perkin Elmerm Waltham, Mass.). A calibration curve was set up with known numbers of cells and a linear correlation between absorbance and cell counts was established up to 5×10^5 cells/well.

The test system of the next assay is LS-174T cells. The assay can be described thus: Hepatic colonization model, intrahepatic injection of CRC cells with soluble peptide. The format is in vivo, CD-1 nude mice. The settings on record: LS-174T intrahepatic, 14 days. On the procedure:
(§2) (FIG. 10A, […]) The receptor side: α6 integrin and E-cadherin are involved in the adhesion of metastatic CRC cells to the liver. HepG2 and NCI-H630 cells were incubated on 10-μm frozen sections of grossly normal human liver and adhered cells were fixed, stained and counted under a light microscope at 20× magnification. Photomicrographs representative of cell numbers (120 minutes' incubation) and morphology (5 days' incubation) are shown. The dotted line indicates a micrometastasis-like structure integrated into the hepatic tissue; arrowheads point to cell aggregates. Tissues were counterstained with hematoxylin (FIG. 10A). […] The same cells were evaluated for their capacity to adhere to the […] […] After 48 hours, cells on the lower side of the transwell membranes were fixed, stained and counted under a light microscope at 5× magnification. […] (SEQ ID NO: 14) or control peptide; after 30 minutes, adhered cells were fixed, stained and counted under a light microscope at 5× magnification. For NCI-H630, adhesion was evaluated on liver sections from 27 patients (Patient Ids: P29, P30, P33, P34, P35, P36, P56-76) and results are shown as the ratio of attached cells in the presence of […] […] In FIG. 10A-D, FIG. 10F and FIG. 10G, differences in the experimental points were evaluated for their statistical significance by the use of ANOVA followed by Bonferroni's post-test. […]

Assay [2] deals with NCI-H630 cells in which ITGA6, CDH1 or both mRNAs were silenced. Briefly: Cell adhesion to microwells coated with peptides and proteins. The format is cell-based, human. On the procedure: as §2
Another assay concerns β4 integrin subunit. The assay can be described thus: Affinity purification of liver metastasis lysates on column-immobilized peptide, ELISA and phage binding of fractions. To be noted: lysates of human liver metastases, in comparison with the controls; FIG. 8. On the procedure:
(FIG. 8A, FIG. 8B) Isolation of […]- (SEQ ID NO: 14) targeted integrin partners. To identify the molecular partner of α6 integrin in the peptide-targeted complex, synthetic […] (SEQ ID NO. 14) was immobilized on column-packed diaminodipropylamine-agarose and successively loaded with 30 mg of total protein from 7 pooled liver metastases secondary to CRCs. Protein fractions were collected after sequential incubation with high salt buffer (for the elution of unspecific proteins), CARAC-peptide (SEQ ID NO. 43) (as a negative control) and […]-peptide (SEQ ID NO. 14) (target elution). Protein amounts in collected fractions were followed by reading their OD at 280 nm (FIG. 8A). […] Control (salt, control peptide) and targeted ([…]—1, —2, and —6) (SEQ ID NO. 14) protein fractions (500 ng each) were evaluated for the presence of specific integrin subunits by an ELISA assay (FIG. 8D).
For the characterization of proteins targeted by […] […] Protein amounts in collected fractions were followed by reading their OD at 280 nm, and selected fractions were concentrated by the use of Microcon centrifugal filter devices with cut-off 10,000 (Millipore) to remove residual synthetic peptides. Proteins were quantified with the Coomassie (Bradford) Protein Assay Kit (Pierce), and 500 ng of each sample was evaluated for the presence of specific integrin subunits with a standard ELISA assay. […]
On the technique in general: An ELISA detects its analyte on a solid surface through an enzyme-linked reagent.

The test system of assay [3] is HCCM-1544 tumor and CRC cell lines (HCT-116m, SW-48, DLD-1, LS-174T). Briefly: Liver homing model, intrasplenic implantation of CRC cells with soluble peptide. To be noted: 100 μM peptide co-injected, significant in all models except DLD-1. The class given is in vivo, CD-1 nude mice. The text has this: To obtain an in vivo model of metastatic CRC, we implanted the patient-derived HCCM-1544 tumor as well as different CRC cell lines (HCT-116m, SW-48, DLD-1 and LS-174T) intrasplenically into CD-1 nude mice (2×10^6/mouse). To evaluate the effect of […] (SEQ ID NO: 14) on liver metastasis, we injected cells either in medium alone (vehicle) or in the presence of the soluble peptide ([…]) (SEQ ID NO: 14). At the indicated time points, mice were euthanized and their livers and spleens were explanted. Livers were photographed for the quantification of external metastatic areas. Representative pictures of whole livers from 2 mice/group are shown for macroscopic evaluation of tumor morphology; the indicated p-values are referred to statistical analysis performed either with Fisher's exact test (in black) or t-test (in red). Spleen (primary tumor) and liver (metastasis) samples were OCT-frozen, cut in 10-μm sections and immunostained with anti-α6 integrin and anti-E-cadherin antibodies, followed by imaging with a confocal microscope. […]
Six-week female CD1-nude mice were purchased from Charles River (Lecco, Italy). […] Mice were strictly monitored until completely awake, and oral ampicillin was administered for 5 days following the surgery. […] External metastatic areas were quantified using ImageJ software.

Assay [4] relates to U293 cells stably transduced with α6 integrin, E-cadherin or both. The assay can be described thus: Transwell migration toward an angiopoietin-like 6 gradient. The settings on record: 48 hours. The class given is cell-based, human. On the procedure:
as §2

Consider two molecules from patent US20150218213A1, “INHIBITORS OF ALPHA6 INTEGRIN/E-CADHERIN COMPLEX” (Università degli Studi di Torino, priority 2012, published 2015).

As for “CGIYRLRSC (Peptide inhibiting the E-cadherin/alpha6 integrin complex) [Targeting synthetic LRS-motif peptide, from New England Peptides]”, in the assay with primary CRC cell lines (HCT-116m, HT-29, SW-48 and DLD-1), the “adhesiveness on hepatic tissues” value is on record as “significantly inhibited”. For the same molecule, the “adhesion to normal hepatic tissues” value in the assay with primary CRC cell lines (non-metastatic HCT-116 cells) is “not influenced”. In the assay on NCI-H630 cells, the “cell adhesion to human liver sections” value is “significant decrease in cell adhesion”. In addition, the cell proliferation result in assay [1] was “no effects”. The “liver tumors (external tumor areas)” value in the assay on LS-174T cells (100 μM peptide co-injected) is recorded as “significant reduction of liver tumors”. Also, the “overall morphology and levels of receptor complex in the tumors” value in the assay with LS-174T cells is “unchanged”. Also, the “cell adherence to microwells coated with peptide” value in assay [2] (NCI-H630 with ITGA6 or both mRNAs silenced, most pronounced with both downmodulated) is reported as “impaired adherence”. Further, in the assay with β4 integrin subunit, the “integrin subunit content of peptide- and phage-targeted protein fractions” value is recorded as “substantial enrichment in the β4 subunit”. For the same molecule, the “homing of CRC cells to the liver (liver metastases)” value in assay [3] is recorded as “diminished homing of CRC cells to the liver”.

B1: angiopoietin-like 6: secreted factor; recombinant protein from Alexis Biochemicals, or produced by transduced U293 cells (protein)
chain: RAGAPRCTYTFVLPPQKFTGAVCWSGPASTRATPEAANASELAALRMRVGRHEELLRELQRLAAADGAVAGEVRALRKESRGLSARLGQLRAQLQHEAGPGAGPGADLGAEPAAALALLGERVLNASAEAQRAAARFHQLDVKFRELAQLVTQQSSLIARLERLCPGGAGGQQQVLPPPPLVPVVPVRLVGSTSDTSRMLDPAPEPQRDQTQRQQEPMASPMPAGHPAVPTKPVGPWQDCAEARQAGHEQSGVYELRVGRHVVSVWCEQQLEGGGWTVIQRRQDGSVNFFTTWQHYKAGFGRPDGEYWLGLEPVYQLTSRGDHELLVLLEDWGGRGARAHYDGFSLEPESDHYRLRLGQYHGDAGDSLSWHNDKPFSTVDRDRDSYSGNCALYQRGGWWYHACAHSNLNGVWHHGGHYRSRYQDGVYWAEFRGGAYSLRKAAMLIRPLKL
With B1, the “cell binding to microwells coated with recombinant protein” value in assay [2] (NCI-H630 cells in which both mRNAs were silenced) is on record as “significantly lower binding”. In addition, the “cell migration toward ligand gradient” value in assay [4] (U293 cells expressing both α6 integrin and E-cadherin) is listed as “significantly stimulated”; in assay [4] (U293 cells with either α6 integrin or E-cadherin), “not influenced”.
